How the values were obtained:
[1] = tested on: NCI-H460; test: Cytotoxicity against human H460 cells after 48 hrs by SRB assay; assay type: functional; settings: NCI-H460, 48 h
[2] = tested on: MCF7; test: Cytotoxicity against human MCF7 cells after 48 hrs by SRB assay; assay type: functional; settings: MCF7, 48 h
[3] = tested on: SF-268; test: Cytotoxicity against human SF268 cells after 48 hrs by SRB assay; assay type: functional; settings: SF-268, 48 h
[4] = Cytotoxicity against […] cells after 48 hrs by SRB assay; assay type: cell-based, Cricetulus griseus; settings: chinese hamster, CHO-K1 cells
[5] = tested on: HT-29; test: Cytotoxicity against human HT-29 cells after 48 hrs by SRB assay; assay type: functional; settings: HT-29, 48 h

| Compound | GI50 [1] [µM] | GI50 [2] [µM] | GI50 [3] [µM] | GI50 at 48 h [4] [µM] | GI50 [5] [µM] |
| --- | --- | --- | --- | --- | --- |
| CC(=O)O[C@H]1C(=O)[C@@]2(C)[C@H]([C@H](OC(=O)c3ccccc3)[C@]3(O)C[C@H](OC(=O)[C@H](O)[C@@H](NC(=O)c4ccccc4)c4ccccc4)C(C)=C1C3(C)C)[C@]1(OC(C)=O)CO[C@@H]1C[C@@H]2O [PACLITAXEL] | 0.024 | 0.012 | 0.012 | 5.9 | 0.012 |
| CN[C@@H]1C[C@H]2O[C@@](C)([C@@H]1OC)n1c3ccccc3c3c4c(c5c6ccccc6n2c5c31)C(=O)NC4 [STAUROSPORINE] | 3.6 | 11 | 0.044 | 0.13 | 3.6 |
| C=C1CCCC(C)(C)C1CC/C(C)=C/Cc1cc(O)ccc1O (stereo not given) [METACHROMIN V] | 5.1 | 3.2 | 5.1 | 2.1 | 10 |
| C=C1CCCC(C)(C)C1CCC1(C)C=Cc2cc(O)cc(OC)c2O1 (stereo not given) [METACHROMIN U] | 37 | 29 | 32 | 27 | 30 |
| C=C1CCCC(C)(C)C1CCc1ccc2c(c1)C(=O)C=C(OC)C2=O (stereo not given) [METACHROMIN W] | 50 | 107 | 104 | 89 | 130 |

From ChEMBL document CHEMBL1782002, “Metachromins U-W: cytotoxic merosesquiterpenoids from an Australian specimen of the sponge Thorecta reticulata” (J Nat Prod, 2011)
